Reference: patent US9856216B2, “Compounds as TNIK, IKKε and TBK1 inhibitors and pharmaceutical composition comprising same” (GREEN CROSS CORPORATION, priority 2015, dated 2018)

Target: T1, TNIK (Homo sapiens, UniProt Q9UKE5)
T1 construct: purchased Promega V4158
Test: ADP-Glo Kinase Assay, inhibition activity on TNIK
Assay type: biochemical
Conditions: not given
Experimental: The inhibition activities on TNIK, IKKε and TBK1 were measured by a luminometer, TNIK/IKKε/TBK1 Kinase Enzyme System (Promega, Ca# V4158; Invitrogen, PR8031B, Promega, Ca# V3991) and ADP-Glo Kinase Assay using ADP-Glo™ Kinase Analysis Kit (Promega, Ca# V9101) and a kinase reaction buffer [40 mM Tris(pH 7.5), 20 mM MgCl2, 0.1 mg/mL BSA] in accordance with the manufacturer's protocol.

T1 sequence (Q9UKE5 1-367 limits assumed): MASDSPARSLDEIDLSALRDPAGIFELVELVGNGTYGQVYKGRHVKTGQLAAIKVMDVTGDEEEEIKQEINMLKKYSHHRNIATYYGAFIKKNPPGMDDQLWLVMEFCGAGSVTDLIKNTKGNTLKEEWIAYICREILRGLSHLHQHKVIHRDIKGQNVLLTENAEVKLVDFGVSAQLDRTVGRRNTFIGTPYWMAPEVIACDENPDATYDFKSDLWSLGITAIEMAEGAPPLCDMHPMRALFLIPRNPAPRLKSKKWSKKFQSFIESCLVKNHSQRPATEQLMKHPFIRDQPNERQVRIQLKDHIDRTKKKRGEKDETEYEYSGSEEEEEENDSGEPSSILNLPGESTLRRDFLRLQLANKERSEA

| SMILES | TNIK (μM) |
| --- | --- |
| O=C1NCc2c(-c3ccccc3)ccc(NCCN3C(=O)c4ccccc4C3=O)c21 [Example 257, 2-(2-((3-Oxo-7-phenylisoindolin-4-yl)amino)ethyl)isoindolin-1,3-dione] | Insoluble |
| O=C1NCc2c(-c3ccccc3)ccc(NCCCN3C(=O)c4ccccc4C3=O)c21 [Example 264, 2-(3-((3-Oxo-7-phenylisoindolin-4-yl)amino)propyl)isoindolin-1,3-dione] | Insoluble |
| COc1cccc(-c2ccc(N)c3c2C(=O)NC3=O)c1OC [Example 273, 4-Amino-7-(2,3-dimethoxyphenyl)isoindolin-1,3-dione] | Insoluble |

Same assay, conditions: TNIK (μM)

| SMILES | IC50 |
| --- | --- |
| O=C1NCc2c(-c3ccccc3)ccc(NCCCl)c21 [Example 253, 7-((2-Chloroethyl)amino)-4-phenylisoindolin-1-one] | 2.6 µM |

Same assay, conditions: read-out: TNIK

| SMILES | IC50 |
| --- | --- |
| N#Cc1ccc(NC(=O)Nc2ccc(-c3ccccc3)c3c2C(=O)NC3)cc1 [Example 228, 1-(4-Cyanophenyl)-3-(3-oxo-7-phenylisoindolin-4-yl)urea] | > 20 µM |
| CCCCNC(=O)Nc1ccc(-c2ccccc2)c2c1C(=O)NC2 [Example 229, 1-Butyl-3-(3-oxo-7-phenylisoindolin-4-yl)urea] | 1.1 µM |
| COc1ccc(NC(=O)Nc2ccc(-c3ccccc3)c3c2C(=O)NC3)cc1 [Example 230, 1-(4-Methoxyphenyl)-3-(3-oxo-7-phenylisoindolin-4-yl)urea] | 0.9 µM |
| O=C(Nc1ccc(-c2ccccc2)c2c1C(=O)NC2)NC1CCCCC1 [Example 231, 1-Cyclohexyl-3-(3-oxo-7-phenylisoindolin-4-yl)urea] | > 20 µM |
| Cc1ccc(NC(=O)Nc2ccc(-c3ccccc3)c3c2C(=O)NC3)cc1 [Example 232, 1-(3-Oxo-7-phenylisoindolin-4-yl)-3-(p-tolyl)urea] | 2.1 µM |
| COc1ccccc1NC(=O)Nc1ccc(-c2ccccc2)c2c1C(=O)NC2 [Example 233, 1-(2-Methoxyphenyl)-3-(3-oxo-7-phenylisoindolin-4-yl)urea] | 16.7 µM |
| CC(C)NC(=O)Nc1ccc(-c2ccccc2)c2c1C(=O)NC2 [Example 234, 1-Isopropyl-3-(3-oxo-7-phenylisoindolin-4-yl)urea] | 1.9 µM |
| O=C(Nc1ccc([N+](=O)[O-])cc1)Nc1ccc(-c2ccccc2)c2c1C(=O)NC2 [Example 235, 1-(4-Nitrophenyl)-3-(3-oxo-7-phenylisoindolin-4-yl)urea] | 4.6 µM |
| CCNC(=O)Nc1ccc(-c2ccccc2)c2c1C(=O)NC2 [Example 236, 1-Ethyl-3-(3-oxo-7-phenylisoindolin-4-yl)urea] | 0.58 µM |
| CC(=O)c1ccc(NC(=O)Nc2ccc(-c3ccccc3)c3c2C(=O)NC3)cc1 [Example 237, 1-(4-Acetylphenyl)-3-(3-oxo-7-phenylisoindolin-4-yl)urea] | 4.9 µM |
| Cc1ccccc1NC(=O)Nc1ccc(-c2ccccc2)c2c1C(=O)NC2 [Example 238, 1-(3-Oxo-7-phenylisoindolin-4-yl)-3-(o-tolyl)urea] | > 20 µM |
| O=C(Nc1ccc(-c2ccccc2)c2c1C(=O)NC2)NC1CCCC1 [Example 239, 1-Cyclopentyl-3-(3-oxo-7-phenylisoindolin-4-yl)urea] | > 20 µM |
| O=C(Nc1cccc(F)c1)Nc1ccc(-c2ccccc2)c2c1C(=O)NC2 [Example 240, 1-(3-Fluorophenyl)-3-(3-oxo-7-phenylisoindolin-4-yl)urea] | 2.4 µM |
| CSc1cccc(NC(=O)Nc2ccc(-c3ccccc3)c3c2C(=O)NC3)c1 [Example 241, 1-(3-(Methylthio)phenyl)-3-(3-oxo-7-phenylisoindolin-4-yl) urea] | 2.7 µM |
| O=C(Nc1ccccc1F)Nc1ccc(-c2ccccc2)c2c1C(=O)NC2 [Example 242, 1-(2-Fluorophenyl)-3-(3-oxo-7-phenylisoindolin-4-yl)urea] | 2.3 µM |
| O=C(Nc1ccc(Cl)cc1)Nc1ccc(-c2ccccc2)c2c1C(=O)NC2 [Example 243, 1-(4-Chlorophenyl)-3-(3-oxo-7-phenylisoindolin-4-yl)urea] | 3.9 µM |
| COc1ccc(-c2ccc(NC(=O)Nc3ccccc3)c3c2CNC3=O)cc1 [Example 244, 1-(7-(4-Methoxyphenyl)-3-oxoisoindolin-4-yl)-3-phenylurea] | 4.02 µM |
| O=C(Nc1ccccc1)Nc1ccc(-c2ccc(F)cc2)c2c1C(=O)NC2 [Example 245, 1-(7-(4-Fluorophenyl)-3-oxoisoindolin-4-yl)-3-phenylurea] | 6.5 µM |
| Nc1ccc(-c2ccccc2)c2c1C(=O)N(C(=O)NC1CCCCC1)C2 [Example 246, 7-Amino-N-cyclohexyl-1-oxo-4-phenylisoindolin-2-carboxamide] | > 20 µM |
| O=C1NCc2c(-c3ccccc3)ccc(NC(=S)Nc3ccccc3)c21 [Example 247, 1-(3-Oxo-7-phenylisoindolin-4-yl)-3-phenylthiourea] | > 20 µM |
| O=C(Nc1ccc(-c2ccccc2)c2c1C(=O)NC2)Oc1ccccc1 [Example 248, Phenyl (3-oxo-7-phenylisoindolin-4-yl)carbamate] | > 20 µM |
| O=C1NCc2c(-c3ccccc3)ccc(NS(=O)(=O)c3ccccc3)c21 [Example 249, N-(3-oxo-7-phenylisoindolin-4-yl)benzenesulfonamide] | > 20 µM |
| CS(=O)(=O)Nc1ccc(-c2ccccc2)c2c1C(=O)NC2 [Example 250, N-(3-oxo-7-phenylisoindolin-4-yl)methanesulfonamide] | 21 µM |

| SMILES | IC50 |
| --- | --- |
| O=C1NCc2c(-c3ccccc3)ccc(NS(=O)(=O)c3ccc(F)cc3)c21 [Example 251, 4-Fluoro-N-(3-oxo-7-phenylisoindolin-4-yl)benzene sulfonamide] | > 20 µM |
| COc1ccc(S(=O)(=O)Nc2ccc(-c3ccccc3)c3c2C(=O)NC3)cc1 [Example 252, 4-Methoxy-N-(3-oxo-7-phenylisoindolin-4-yl)benzene sulfonamide] | > 20 µM |
| N#CCCNc1ccc(-c2ccccc2)c2c1C(=O)NC2 [Example 254, 3-((3-Oxo-7-phenylisoindolin-4-yl)amino)propanenitrile] | 5.6 µM |
| CN(C)CCNc1ccc(-c2ccccc2)c2c1C(=O)NC2 [Example 255, 7-((2-(Dimethylamino)ethyl)amino)-4-phenylisoindolin-1-one] | > 20 µM |
| O=C1NCc2c(-c3ccccc3)ccc(NCCO)c21 [Example 256, 7-((2-Hydroxyethyl)amino)-4-phenylisoindolin-1-one] | 4.9 µM |
| CN1CCN(CCNc2ccc(-c3ccccc3)c3c2C(=O)NC3)CC1 [Example 258, 7-((2-(4-Methylpiperazin-1-yl)ethyl)amino)-4-phenylisoindolin-1-one] | > 20 µM |
| O=C1NCc2c(-c3ccccc3)ccc(NCCN3CCCCC3)c21 [Example 259, 4-Phenyl-7-((2-(piperidin-1-yl)ethyl)amino)isoindolin-1-one] | > 20 µM |
| O=C1NCc2c(-c3ccccc3)ccc(NCCN3CCOCC3)c21 [Example 260, 7-((2-Morpholinoethyl)amino)-4-phenylisoindolin-1-one] | > 20 µM |
| CNCCNc1ccc(-c2ccccc2)c2c1C(=O)NC2 [Example 261, 7-((2-(Methylamino)ethyl)amino)-4-phenylisoindolin-1-one] | > 20 µM |
| O=C1NCc2c(-c3ccccc3)ccc(NCCN3CCCC3)c21 [Example 262, 4-Phenyl-7-((2-(pyrrolidin-1-yl)ethyl)amino)isoindolin-1-one] | > 20 µM |
| O=C1NCc2c(-c3ccccc3)ccc(NCc3ccccc3)c21 [Example 263, 7-(Benzylamino)-4-phenylisoindolin-1-one] | > 20 µM |
| Nc1ccc(-c2ccccc2)c2c1C(=O)NC2=O [Example 271, 4-Amino-7-phenylisoindolin-1,3-dione] | 2.5 µM |
| COc1ccccc1-c1ccc(N)c2c1C(=O)NC2=O [Example 272, 4-Amino-7-(2-methoxyphenyl)isoindolin-1,3-dione] | 10.9 µM |
| Nc1ccc(-c2ccco2)c2c1C(=O)NC2=O [Example 274, 4-Amino-7-(furan-2-yl)isoindolin-1,3-dione] | 3.6 µM |
| Nc1ccc(-c2cccs2)c2c1C(=O)NC2=O [Example 275, 4-Amino-7-(thiophen-2-yl)isoindolin-1,3-dione] | 1.1 µM |
| O=C(Nc1ccc(-c2ccccc2)c2c1C(=O)NC2=O)c1ccccc1 [Example 276, N-(1,3-dioxo-7-phenylisoindolin-4-yl)benzamide] | 1.1 µM |
| COc1ccccc1-c1ccc(NC(=O)c2ccccc2)c2c1C(=O)NC2=O [Example 277, N-(7-(2-methoxyphenyl)-1,3-dioxoisoindolin-4-yl)benzamide] | 0.65 µM |
| COc1cccc(-c2ccc(NC(=O)c3ccccc3)c3c2C(=O)NC3=O)c1OC [Example 278, N-(7-(2,3-dimethoxyphenyl)-1,3-dioxoisoindolin-4-yl) benzamide] | 0.41 µM |
| O=C(Nc1ncc(-c2ccccc2)c2c1C(=O)NC2)c1ccc(F)cc1 [Example 279, 4-Fluoro-N-(3-oxo-7-phenyl-2,3-dihydro-1H-pyrrolo[3,4-c]pyridin-4-yl)benzamide] | > 20 µM |
| COc1cccc(-c2ccc(NC(=O)c3ccc(NCCCN4CCCC4)cc3)c3c2CNC3=O)c1OC [Example 280, N-(7-(2,3-dimethoxyphenyl)-3-oxoisoindolin-4-yl)-4-((3-(pyrrolidin-1-yl)propyl)amino)benzamide] | 0.073 µM |
| CN(C)CCNc1ccc(C(=O)Nc2ccc(Br)c3c2C(=O)NC3)cc1 [Example 281, N-(7-bromo-3-oxoisoindolin-4-yl)-4-((2-(dimethylamino)ethyl)amino)benzamide] | 2.42 µM |
| O=C(Nc1ccc(Br)c2c1C(=O)NC2)c1ccc(NCCCN2CCCCC2)cc1 [Example 282, N-(7-bromo-3-oxoisoindolin-4-yl)-4-((3-(piperidin-1-yl)propyl)amino)benzamide] | 1.4 µM |
| O=C(Nc1ccc(Br)c2c1C(=O)NC2)c1ccc(NCCN2CCCC2)cc1 [Example 283, N-(7-bromo-3-oxoisoindolin-4-yl)-4-((2-(pyrrolidin-1-yl)ethyl)amino)benzamide] | 1.76 µM |
